From PMC10899196, “Protective effect of microbisporicin (NAI-107) against vancomycin resistant Enterococcus faecium infection in a Galleria mellonella model” (Scientific Reports, 2024)
≈ marks a conversion by molar mass, not a printed value. Read-outs that look alike come from different tables or passages of the source. Ends that are not written are not given here.

What was measured:
vanA E. faecalis A533 = settings: administered intravenously to neutropenic mice; cited from earlier work
Description: (§1) Bacteriocins have gained considerable attention as potential alternatives to traditional antibiotics due to their narrow-spectrum activity and a lower likelihood of inducing resistance[11],[12]. Most leaderless bacteriocins such as Lacticin Q (53 aa), Lacticin Z (53 aa), and Garvicin KS have proven to have inhibitory effects against a range of genera such as Listeria, Staphylococcus and ...

vanA E. faecium 569 = settings: administered intravenously to neutropenic mice; cited from earlier work
Description: as §1

[1] = system: vanB-type E. faecium (ID 553); experiment: Galleria mellonella E. faecium infection model, in vivo efficacy
Description: G. mellonella larvae were treated with a range of doses of vanB-type E. faecium (ID 553) (1 × 10^6–1 × 10^9 CFU/mL) and observed for death alongside phosphate buffer saline (PBS) controls.
Injection of G. mellonella was carried out as described in Dijokaite et al.[21]. The last larval stage of G. mellonella (Terramania, Arnhem, NL) were used for the experiments. Only non-discoloured, healthy larvae were selected. The larvae were injected in the last left proleg using 0.3 mL U-100 insulin syringes (BD Micro-Fine).
Each test group consisted of two groups of 10 larvae per concentration of each bacteriocin or linezolid (10 µg/mL). 30 µl of PBS containing 2.7 × 10^7 CFU E. faecium was used to infect the G. mellonella larva. The larvae were treated with various concentrations of bacteriocins. One positive and two negative control groups were used. The positive control group received only the E. faecium inoculum in PBS. Out of the two negative control groups, one group underwent no manipulation, while the other group was injected with PBS only. Each antimicrobial agent was tested in a single experiment using larvae from the same batch and tested at the same time under identical conditions. Each group were incubated in sterile Petri dishes at 37 °C with a 5% (v/v) CO2 atmosphere for the length of the experiments.
Data were analyzed using GraphPad Prism v9. Survival plots were created using Kaplan–Meier survival curves. Statistical analysis was carried out using the Mantel-Cox test to compare survival curves between the PBS controls and each treatment arm. A P value of < 0.05 was considered statistically significant.

[2] = system: van-B type E. faecium (ID 553); experiment: microbe, parasite or virus in culture; assay type: cell-based, Enterococcus faecium
Description: Sixty-six bacteriocins from Syngulon PARAGEN collection and NAI-107 from Naicons, SRL were screened using the resazurin microtiter assay (REMA)[30],[31]. The MIC for the antimicrobials listed in Table 1 were determined according to the clinical and laboratory standard institute (CLSI) guidelines and the European Committee on Antimicrobial Susceptibility Testing (EUCAST) broth microdilution reference method for MIC determination in E. faecium[32],[33].

[3] = cited from earlier work
Description: This characteristic implies that NAI-107 would require parenteral administration in multiple doses per day for therapeutic use.

G. mellonella = G. mellonella model; cited from earlier work
Description: (§2) There are a number of study limitations. […] This hypothesis was motivated by the growing problem of VRE infections. We acknowledge the limitations of this hypothesis. […] This would be of clinica ...

[4] = system: methicillin-resistant Staphylococcus aureus; settings: cited from earlier work
Description: as §2

[5] = micro broth dilution method, van-B type E. faecium (ID 553)
[6] = micro broth dilution method, van-B type E. faecium (ID 553), molar value from deduced molecular weight
[7] = mouse, single subcutaneous dosing of 5, 20 and 80 mg/kg
[8] = Enterococcus faecium, micro broth dilution method, van-B type E. faecium (ID 553), read-out: MIC

Compound: Microbisporicin
- in vivo efficacy (vanA E. faecalis A533): effective
- in vivo efficacy (vanA E. faecium 569): effective
- mortality compared with the linezolid (10 µg/mL) treated group ([1]; 16 µg/mL group, 120 h): significantly lower
- dose groups with the lowest mortality ([1]; doses tested 2, 4, 8 and 16 µg/mL, 120 h): 8 µg/mL and 16 µg/mL
- in vivo efficacy (survival of infected larvae) ([1]; larvae infected with 2.7 × 10^7 CFU E. faecium in 30 µl PBS, 20 larvae per group, 2-16 µg/mL, 120 h at 37 °C): effective in vivo at all doses tested
- MIC [2, 5]: 4 µg/mL
- MIC [2, 6]: 0.00178 µM/L
- bioavailability ([3]; after intramuscular, intravenous and subcutaneous administration): good bioavailability
- AUC [3, 7]: 27000 to 276000 ng·h/mL
- Cmax [3, 7]: 4000 to 22000 ng/mL
- elimination half-lives [3, 7]: 4.2 to 8.2 h
- oral absorption ([3]; oral): not absorbed orally
- concentration up to which no toxicity was exhibited (G. mellonella): ≥ 64000 ng/mL
- efficacy against methicillin-resistant Staphylococcus aureus in rat model [4]: efficacious
- toxicity in rat model [4]: non-toxic

Compound: CC(=O)NC[C@H]1CN(c2ccc(N3CCOCC3)c(F)c2)C(=O)O1 [Linezolid, reference compound]
- MIC [2, 8]: 2 µg/mL (≈ 5.93 µM)

Compound: Teicoplanin [reference compound]
- MIC [2, 5]: 0.5 µg/mL

Compound: CN(C)[C@@H]1C(O)=C(C(N)=O)C(=O)[C@@]2(O)C(O)=C3C(=O)c4c(O)cccc4[C@@](C)(O)[C@H]3C[C@@H]12 [Tetracycline, reference compound]
- MIC [2, 8]: 0.25 µg/mL (≈ 0.563 µM)

Compound: CC1(C)S[C@@H]2[C@H](NC(=O)[C@H](N)c3ccccc3)C(=O)N2[C@H]1C(=O)O [Ampicillin, reference compound]
- MIC [2, 8]: ≥ 32 µg/mL

Compound: CNC(C)C1CCC(N)C(OC2C(N)CC(N)C(OC3OCC(C)(O)C(NC)C3O)C2O)O1 (stereo not drawn) [Gentamicin, reference compound]
- MIC [2, 8]: ≥ 32 µg/mL

Compound: CC[C@H]1OC(=O)[C@H](C)[C@@H](O[C@H]2C[C@@](C)(OC)[C@@H](O)[C@H](C)O2)[C@H](C)[C@@H](O[C@@H]2O[C@H](C)C[C@H](N(C)C)[C@H]2O)[C@](C)(O)C[C@@H](C)C(=O)[C@H](C)[C@@H](O)[C@]1(C)O [Erythromycin, reference compound]
- MIC [2, 8]: ≥ 8 µg/mL

Compound: MSWLNFLKYIAKYGKKAVSAAWKYKGKVLEWLNVGPTLEWVWQKLKKIAGL [Aureocin A53]
- MIC [2, 5]: 1.56 µg/mL
- MIC [2, 6]: 0.2609 µM/L

Compound: CN[C@H](CC(C)C)C(=O)N[C@H]1C(=O)N[C@@H](CC(N)=O)C(=O)N[C@H]2C(=O)N[C@H]3C(=O)N[C@H](C(=O)N[C@H](C(=O)O)c4cc(O)cc(O)c4-c4cc3ccc4O)[C@H](O)c3ccc(c(Cl)c3)Oc3cc2cc(c3O[C@@H]2O[C@H](CO)[C@@H](O)[C@H](O)[C@H]2O[C@H]2C[C@](C)(N)[C@H](O)[C@H](C)O2)Oc2ccc(cc2Cl)[C@H]1O [Vancomycin]
- MIC ([2]; Enterococcus faecium): 64 µg/mL (≈ 44.2 µM)
